# Measured values as given in patent US5210089A, “D-rhamnono-1,5-lactone” (Monsanto Company, priority 1992, dated 1993).
# Counter-ions that a name gives are not always drawn. Like-named read-outs stand apart in the source and are kept apart here.
# Key:
# [1] = test system: α-rhamnosidase (naringinase); assay: Naringinase assay with p-nitrophenyl α-L-rhamnoside; format: biochemical; conditions: 1 mM compound; p-nitrophenyl α-L-rhamnoside 1.75 mM
# Protocol: (§1) Melting points were recorded on a Kofler hot block. Proton nuclear magnetic resonance (δH) spectra were recorded on Varian Gemini 200 (at 200 MHz), Bruker WH 300 (300 MHz), or Bruker AM 500 (500 MHz) spectrometers. Carbon nuclear magnetic resonance (δC) spectra were recorded on a Varian Gemini 200 (50 MHz) or a Bruker 250 (62.9 MHz) spectrometer. Multiplicities were assigned using DEPT sequence on the Gemini and by off resonance decoupling on the Bruker. Spectra run in D2 O were referenced to methanol as an internal standard. All chemical shifts are quoted on the δ-scale. Infrared spectra were recorded on a Perkin-Elmer 297, or on a Perkin-Elmer 781 spectrophotometer. Mass spectra were recorded on VG Micromass 30F, ZAB lF, Masslab 20-250 or Trio-1 GCMS (DB-5 column) spectrometers using desorption chemical ionization (NH3 DCI), electron impact (EI), chemical ionization (NH3 CI) and fast atom bombardment (FAB) techniques, as stated. […] Concentrations were given in g/100 ml. Hydrogenations were run under an atmosphere of hydrogen gas maintained by inflated balloon. Microanalyses were performed by the microanalysis service of the DysonPerrins laboratory, Oxford UK. Thin layer chromatography (t.l.c.) was carried out on aluminum sheets coated with 60F254 silica. Plates were developed using either 5% v/v concentrated sulphuric acid in methanol, 0.2% w/v cerium (IV) sulphate and 5% ammonium molybdate in 2M sulphuric acid and 0.5% ninhydrin in methanol. Flash chromatography was carried out using Sorbsil C60 40/60 silica. Ion-exchange chromatography was performed using Dowex 50W-X8 (H) and Sigma CG 400 (Cl) resins. The resins were washed with 2M hydrochloric acid and 2M sodium hydroxide solution, respectively, and subsequently with distilled water, prior to use. Solvents and commercially available reagents were dried and purified before use according to standard procedures; dichloromethane was refluxed over and distilled from calcium hydride, N,N-dimethylformamide was distilled under reduced pressure from calcium hydride, methanol was distilled from magnesium methoxide, pyridine was distilled from, and stored over, potassium hydroxide and tetrahydrofuran was distilled from a purple solution of sodium benzophenone ketyl immediately before use. Hexane was distilled at 68° C. before use to remove involatile fractions. 2,3-O-Isopropylidene-L-gulono-1,4-lactone (9) [H. Ogura et al., J. Oro. Chem. 37, 72 (1972); G. W. J. Fleet Tetrahedron 45, 319 (1989)]and 2,3-O-isopropylidene-D-gulono-1,4-lactone (15) [L. M. Lerner et al., J. Org. Chem. 33, 1780 (1968)]were prepared from D- and L-Chem. gulonolactones [purchased from the Sigma Chemical Company] as reported previously. See, e.g., Fleet, U.S. Pat. No. 4,861,892. Human liver glycosidases were assayed in the absence and presence [1 mM] of each of the compounds using the appropriate buffered 4-methylumbellifeeryl-glycosides as substrates, as described previously. [B. Winchest et al., Biochem. J. 265, 277 (1990)]. Naringinase was assayed using pnitrophenyl α-L-rhamnoside (1.75 mM) as substrates, according to Romero [C. Romero et al., Anal. Biochem. 149, 566 (1985)].
# (§2) The enzymes included human liver glycosidases and naringinase. The latter enzyme is a readily available endo-L-rhamnosidase described by Romero et al., Anal. Biochem. 149, 566 (1985).
# Lysosomal α-mannosidase = target: T1, Lysosomal α-mannosidase (Homo sapiens, UniProt O00754); assay: Human liver glycosidase assay, lysosomal α-mannosidase; format: biochemical; parameters: human liver extracts; from tissue; host or cells: human liver extracts; conditions: for inhibition at 1000 µM: 1 mM compound, 4-methylumbelliferyl-glycoside substrate
# T1 sequence (O00754 50-1011): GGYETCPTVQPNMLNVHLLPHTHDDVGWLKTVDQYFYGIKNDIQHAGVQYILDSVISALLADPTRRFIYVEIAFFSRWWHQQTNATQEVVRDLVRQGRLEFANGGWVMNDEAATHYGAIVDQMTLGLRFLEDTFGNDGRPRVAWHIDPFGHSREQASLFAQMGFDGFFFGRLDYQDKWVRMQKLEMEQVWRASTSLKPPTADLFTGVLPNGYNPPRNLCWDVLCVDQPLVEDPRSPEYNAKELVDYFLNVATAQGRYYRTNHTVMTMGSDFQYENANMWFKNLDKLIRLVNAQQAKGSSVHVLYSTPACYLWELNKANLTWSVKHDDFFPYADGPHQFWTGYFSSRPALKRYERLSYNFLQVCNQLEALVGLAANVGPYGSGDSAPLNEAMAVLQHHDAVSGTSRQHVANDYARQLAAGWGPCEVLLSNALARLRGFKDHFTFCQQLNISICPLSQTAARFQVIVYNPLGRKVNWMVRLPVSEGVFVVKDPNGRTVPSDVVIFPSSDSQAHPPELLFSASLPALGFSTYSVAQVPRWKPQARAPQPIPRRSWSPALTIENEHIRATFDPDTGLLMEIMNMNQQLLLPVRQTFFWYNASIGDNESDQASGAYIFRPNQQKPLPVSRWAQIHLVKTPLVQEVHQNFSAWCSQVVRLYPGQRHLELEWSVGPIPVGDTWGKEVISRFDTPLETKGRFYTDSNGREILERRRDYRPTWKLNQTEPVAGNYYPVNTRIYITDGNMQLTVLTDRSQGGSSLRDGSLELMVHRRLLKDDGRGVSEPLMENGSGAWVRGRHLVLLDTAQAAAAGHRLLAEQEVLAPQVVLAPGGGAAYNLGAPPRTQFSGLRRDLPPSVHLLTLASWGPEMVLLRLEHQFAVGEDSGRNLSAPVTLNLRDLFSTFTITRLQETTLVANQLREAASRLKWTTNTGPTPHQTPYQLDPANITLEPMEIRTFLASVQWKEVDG
# Protocol: as §1, §2
# β-mannosidase = target: T2, β-mannosidase (Homo sapiens, UniProt O00462); conditions: literature; cited from earlier work
# T2 sequence (O00462 18-879): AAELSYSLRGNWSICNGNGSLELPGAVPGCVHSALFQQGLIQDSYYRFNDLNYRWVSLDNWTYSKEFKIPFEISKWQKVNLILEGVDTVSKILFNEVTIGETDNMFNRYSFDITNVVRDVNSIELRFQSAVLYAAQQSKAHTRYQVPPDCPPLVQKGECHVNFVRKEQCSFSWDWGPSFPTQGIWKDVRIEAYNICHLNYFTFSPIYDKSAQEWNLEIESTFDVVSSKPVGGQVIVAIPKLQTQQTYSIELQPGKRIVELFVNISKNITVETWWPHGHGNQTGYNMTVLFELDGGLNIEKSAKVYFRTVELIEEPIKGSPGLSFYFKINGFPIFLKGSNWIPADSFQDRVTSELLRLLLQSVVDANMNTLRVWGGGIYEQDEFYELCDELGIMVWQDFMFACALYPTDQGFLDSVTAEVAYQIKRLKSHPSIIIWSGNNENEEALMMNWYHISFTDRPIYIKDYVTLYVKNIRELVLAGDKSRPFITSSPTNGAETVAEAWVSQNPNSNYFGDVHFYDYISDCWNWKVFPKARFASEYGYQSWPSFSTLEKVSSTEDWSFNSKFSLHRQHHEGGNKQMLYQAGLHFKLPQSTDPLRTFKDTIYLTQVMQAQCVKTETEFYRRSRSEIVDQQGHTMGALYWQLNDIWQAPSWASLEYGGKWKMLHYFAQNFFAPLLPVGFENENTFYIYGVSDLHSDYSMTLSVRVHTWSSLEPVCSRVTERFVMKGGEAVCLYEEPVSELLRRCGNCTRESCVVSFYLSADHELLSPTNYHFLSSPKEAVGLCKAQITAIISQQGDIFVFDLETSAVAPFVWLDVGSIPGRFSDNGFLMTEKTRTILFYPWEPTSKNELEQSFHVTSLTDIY
# Lysosomal α-fucosidase = target: T3, Lysosomal α-fucosidase (Homo sapiens, UniProt P04066); assay: Human liver glycosidase assay, lysosomal α-fucosidase; format: biochemical; conditions: read-out: Inhibition (%) at 1 mM, lysosomal α-fucosidase
# T3 construct: human liver extracts; from tissue; host or cells: human liver extracts
# T3 sequence (P04066 32-466): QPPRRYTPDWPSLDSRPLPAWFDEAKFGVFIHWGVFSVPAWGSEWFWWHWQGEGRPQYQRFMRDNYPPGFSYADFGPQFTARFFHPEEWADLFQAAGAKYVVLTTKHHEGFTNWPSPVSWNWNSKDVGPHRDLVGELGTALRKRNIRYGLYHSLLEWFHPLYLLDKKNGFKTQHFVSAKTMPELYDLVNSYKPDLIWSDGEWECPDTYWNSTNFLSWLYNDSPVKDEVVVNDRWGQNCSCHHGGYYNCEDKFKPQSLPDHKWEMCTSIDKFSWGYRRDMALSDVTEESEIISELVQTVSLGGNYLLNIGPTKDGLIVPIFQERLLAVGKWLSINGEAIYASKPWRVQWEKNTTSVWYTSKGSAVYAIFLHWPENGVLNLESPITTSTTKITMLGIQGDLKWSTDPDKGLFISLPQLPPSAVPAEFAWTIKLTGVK
# Protocol: as §1, §2
# [2] = test system: N-acetyl-β-D-hexosaminidase; assay: Human liver glycosidase assay, N-acetyl-β-D-hexosaminidase; format: biochemical; conditions: 1 mM compound
# Protocol: (§3) Melting points were recorded on a Kofler hot block. Proton nuclear magnetic resonance (δH) spectra were recorded on Varian Gemini 200 (at 200 MHz), Bruker WH 300 (300 MHz), or Bruker AM 500 (500 MHz) spectrometers. Carbon nuclear magnetic resonance (δC) spectra were recorded on a Varian Gemini 200 (50 MHz) or a Bruker 250 (62.9 MHz) spectrometer. Multiplicities were assigned using DEPT sequence on the Gemini and by off resonance decoupling on the Bruker. Spectra run in D2 O were referenced to methanol as an internal standard. All chemical shifts are quoted on the δ-scale. Infrared spectra were recorded on a Perkin-Elmer 297, or on a Perkin-Elmer 781 spectrophotometer. Mass spectra were recorded on VG Micromass 30F, ZAB lF, Masslab 20-250 or Trio-1 GCMS (DB-5 column) spectrometers using desorption chemical ionization (NH3 DCI), electron impact (EI), chemical ionization (NH3 CI) and fast atom bombardment (FAB) techniques, as stated. […] Concentrations were given in g/100 ml. Hydrogenations were run under an atmosphere of hydrogen gas maintained by inflated balloon. Microanalyses were performed by the microanalysis service of the DysonPerrins laboratory, Oxford UK. […]
# as §2
# [3] = test system: glycoprotein processing mannosidase I; conditions: literature; cited from earlier work
# bovine α-L-fucosidase = target: T4, bovine α-L-fucosidase (Bos taurus, UniProt Q2KIM0); conditions: literature; cited from earlier work
# T4 sequence (Q2KIM0 23-468): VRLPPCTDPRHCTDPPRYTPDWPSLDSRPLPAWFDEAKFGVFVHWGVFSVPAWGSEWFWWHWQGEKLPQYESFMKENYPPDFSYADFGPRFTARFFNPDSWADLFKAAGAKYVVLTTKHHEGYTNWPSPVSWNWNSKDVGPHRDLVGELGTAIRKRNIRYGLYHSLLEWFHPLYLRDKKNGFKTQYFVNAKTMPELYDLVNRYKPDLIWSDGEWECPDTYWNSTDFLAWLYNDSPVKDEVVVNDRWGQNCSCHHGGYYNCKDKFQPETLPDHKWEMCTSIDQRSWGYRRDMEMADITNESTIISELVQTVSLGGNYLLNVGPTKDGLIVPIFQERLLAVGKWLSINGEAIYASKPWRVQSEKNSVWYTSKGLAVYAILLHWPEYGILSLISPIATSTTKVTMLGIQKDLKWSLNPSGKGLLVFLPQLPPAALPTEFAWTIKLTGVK
# α-arabinosidase = assay: Human liver glycosidase assay, α-arabinosidase; format: biochemical; conditions: 1 mM compound
# Protocol: as §3, §2
# human liver mannosidases = conditions: literature; cited from earlier work
# mannosidases = conditions: literature; cited from earlier work
# [4] = human liver, read-out: Ki, lysosomal α-mannosidase
"inhibition at 1000 µM (Lysosomal α-fucosidase; 1 mM compound, human liver) [%]","Inhibition (%) at 1 mM, α-arabinosidase (α-arabinosidase) [%]",Ki (Lysosomal α-mannosidase; [4]) [µM],SMILES,"Inhibition (%) at 1 mM, α-rhamnosidase (naringinase) [1] [%]",inhibition at 1000 µM (Lysosomal α-mannosidase; human liver) [%],Inhibition of glycoprotein processing mannosidase (in words) [3],further results
,,,"C[C@H]1NC[C@@H](O)[C@@H](O)[C@@H]1O [D-Rhamnojirimycin (5), 1,5-amino-1,5,6-trideoxy-D-mannitol hydrochloride]",10,55,,"IC50 (Lysosomal α-mannosidase; human liver, read-out: I50, lysosomal α-mannosidase): 1000 µM"
,,,O[C@H]1[C@H]2[C@H](O)CCCN2C[C@H]1O [swainsonine],,,,Inhibition of β-mannosidase (in words) (β-mannosidase): fail to inhibit
,,,"C[C@@H]1NC[C@H](O)[C@H](O)[C@H]1O [L-Rhamnojirimycin (7), 1,5-Imino-1,5,6-trieoxy-L-mannitoI hydrochIoride]",0,19,,
,,,"OC[C@H]1NC[C@@H](O)[C@@H](O)[C@@H]1O [DMJ (1), deoxymannojirimycin]",,,potent inhibitor,"inhibition at 1000 µM (Lysosomal α-fucosidase): 92%; Inhibition (%) at 1 mM, N-acetyl-β-D-hexosaminidase [2]: 54%; Inhibition of bovine α-L-fucosidase (in words) (bovine α-L-fucosidase): potent inhibitor; Ki (Lysosomal α-mannosidase): 750 µM"
21,91,1.3,"C[C@@H](O)[C@H]1NC[C@@H](O)[C@H]1O [1,4-dideoxy-1,4-imino-6-deoxy-mannitol]",,100,,Inhibition of human liver mannosidases (in words) (human liver mannosidases): excellent inhibitor
24,66,13,"OC[C@@H](O)[C@H]1NC[C@@H](O)[C@H]1O [1,4-dideoxy-1,4-iminomannitol (3), 1,4-dideoxy-1,4-iminomannitol]",,89,strong,Inhibition of many mannosidases (in words) (mannosidases): strong
